2 molecules from BindingDB's records for doi:10.1016/j.bmc.2010.01.042 (Nerviano Medical Sciences, 2010) can be followed below.

A word on the IC50: it is the concentration that gives 50% inhibition. A higher IC50 goes with weaker potency.

For the experiment, the target named is 3-phosphoinositide-dependent protein kinase 1 (Homo sapiens) (UniProt O15530). Kind of experiment: Inhibition of PDK1 by scintillation proximity assay. Background: In a scintillation proximity assay essentially only radioactivity close to the scintillant gives light.

Structures are written as SMILES. A value given as a limit tells only on which side of the number the result lay.

In turn, `CC(C)CC(=O)Nc1[nH]nc2c1CN(C(=O)C1CCN(C)CC1)C2(C)C` returned an IC50 above 10 µM. As for `CC(C)(C)C(=O)N1Cc2c(n[nH]c2NC(=O)c2cc(F)cc(F)c2)C1(C)C` [N-[5-(2,2-Dimethylpropanoyl)-6,6-dimethyl-1,4,5,6-tetrahydropyrrolo[3,4-c]pyrazol-3-yl]-3,5-difluorobenzamide], the figure is above 10 µM.
